Laboratory results as given in patent publication US6620910B1, “Peptide compounds analogues of the glucagon-like peptide-1 (7-37)” (Les Laboratoires Servier, priority 1998, dated 2003).
pEC50, pIC50: −log10 of the molar value.

What was measured:
GLP-1 receptor [1] = target: T1, GLP-1 receptor (Rattus norvegicus, UniProt P32301); experiment: GLP-1 receptor binding study (RIN T3 membranes, [125I]-GLP-1); details: [125I]-GLP-1, 45 min at 37° C., read-out: affinity (IC50)
T1 construct: endogenous in cells; host or cells: RIN T3 cells (membranes in A1, whole cells in A2)
T1 sequence (P32301 22-463): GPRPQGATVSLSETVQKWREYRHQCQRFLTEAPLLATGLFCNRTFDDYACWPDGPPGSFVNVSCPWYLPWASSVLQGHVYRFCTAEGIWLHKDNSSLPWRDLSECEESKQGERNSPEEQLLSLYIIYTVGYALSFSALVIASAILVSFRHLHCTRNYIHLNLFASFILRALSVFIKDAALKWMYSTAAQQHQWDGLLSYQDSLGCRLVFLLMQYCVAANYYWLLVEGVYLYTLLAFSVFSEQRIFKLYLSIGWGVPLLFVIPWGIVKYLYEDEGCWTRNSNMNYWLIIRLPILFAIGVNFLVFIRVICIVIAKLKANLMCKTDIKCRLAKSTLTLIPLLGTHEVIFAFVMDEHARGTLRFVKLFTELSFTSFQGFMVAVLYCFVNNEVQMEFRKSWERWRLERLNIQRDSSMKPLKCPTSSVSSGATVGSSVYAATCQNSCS
Description: The GLP-1 receptor binding studies were carried out using RIN T3 membranes in a […] Tris-HCl buffer pH 7.5 containing 4% BSA and […] of bacitracin. The membranes (20 to 30 μg) are incubated in a final volume of 500 μl with approximately 15 fmol of [125I]-GLP-1 (50,000 cpm) and the cold competitor for 45 min. at 37° C. The reaction is stopped by the addition of 750 μl of cold KRP buffer, pH 7.5, containing 3% BSA. The mixture is centrifuged at 12,000×g (4° C., 5 min). The residue is resuspended in 1 ml of cold KRP buffer and sedimented by a further centrifugation, and the radioactivity is measured. The results are expressed as IC50.

GLP-1 receptor [2] = target: T1, GLP-1 receptor; experiment: Agonist character: cyclic AMP production in RIN T3 cells; format: cell-based; details: 20 minutes at 25° C., 100% = cAMP induced by 10^−8M GLP-1
Description: The agonist character of the compounds of the invention was determined by measuring the production of cyclic AMP after activation of the receptor by the different products being tested.
RIN T3 cells are cultured for 6 days and the culture medium is chanced 1 day before the experiment. The cells (3×10^5 per well) are washed twice with DMEM before the addition of 0.5 ml of DMEM containing 1% BSA, 0.2 ml of IBMX and the peptide being tested. After incubation for 20 minutes at 25° C., the intracellular cAMP is extracted, succinylated and quantified by radioimmunoassay.
The reference value of 100% corresponds to the production of cAMP induced by a concentration of 10^−8M GLP-1 and the value 0% corresponds to the basal production in the absence of GLP-1.

in vitro = in vitro ADME; details: human, plasma
Description: An aliqout of 50 μg/ml of a solution containing the peptide to be studied is incubated in human plasma at 37° C. An HPLC linear analysis method allows measurement of the amount of peptide at time T0, then after incubation for 5, 10, 15, 30 and 60 minutes.

[3] = target: dipeptidyl peptidase IV (DPP IV) (Homo sapiens, UniProt P27487); experiment: Metabolic stability towards dipeptidyl peptidase IV; format: in vitro ADME
Chain of dipeptidyl peptidase IV (DPP IV) (P27487 whole entry, species assumed): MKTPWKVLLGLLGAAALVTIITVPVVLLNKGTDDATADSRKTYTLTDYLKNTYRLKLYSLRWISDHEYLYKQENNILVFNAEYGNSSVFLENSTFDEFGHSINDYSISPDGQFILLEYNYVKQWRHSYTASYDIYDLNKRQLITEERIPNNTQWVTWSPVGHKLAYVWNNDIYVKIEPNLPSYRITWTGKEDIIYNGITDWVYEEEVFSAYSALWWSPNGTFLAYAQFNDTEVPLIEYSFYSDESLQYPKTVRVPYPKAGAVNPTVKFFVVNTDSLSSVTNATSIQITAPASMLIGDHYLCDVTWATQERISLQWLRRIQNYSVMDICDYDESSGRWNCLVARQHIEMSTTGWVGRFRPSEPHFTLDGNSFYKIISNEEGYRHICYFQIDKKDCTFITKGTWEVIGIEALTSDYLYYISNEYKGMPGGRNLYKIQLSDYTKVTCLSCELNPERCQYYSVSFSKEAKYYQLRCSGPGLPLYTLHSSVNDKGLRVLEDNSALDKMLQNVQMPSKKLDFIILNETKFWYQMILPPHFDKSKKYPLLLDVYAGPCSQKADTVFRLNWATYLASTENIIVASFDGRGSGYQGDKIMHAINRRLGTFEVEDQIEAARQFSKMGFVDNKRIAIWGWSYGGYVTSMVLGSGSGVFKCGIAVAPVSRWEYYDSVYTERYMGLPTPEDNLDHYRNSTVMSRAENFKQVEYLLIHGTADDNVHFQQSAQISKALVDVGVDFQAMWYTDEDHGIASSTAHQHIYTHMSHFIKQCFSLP
Description: Each compound is dissolved in 50 mg/ml of BSA in an aqueous 1% trifluoroacetic acid solution to obtain a concentration of 1 mg/ml.
50 μl samples of the above-prepared solution containing 1 mg/ml of the peptide are added to 940 μl of 0.1M TRIS, pH 8.0. After analysis of the solution by HPLC to determine the amount of peptide, 10 μl of an aqueous solution containing 48 milli-units of dipeptidyl peptidase IV (DPP IV) are added, and the samples are analysed by HPLC at time T0 and after incubation for 10 minutes at 37° C.
The measurement results enable evaluation of the amount of peptide remaining and are expressed as a percentage in relation to T0.

pIC50 (GLP-1 receptor [1])	pEC50 (GLP-1 receptor [2])	remaining at 5 min, 50 μg/ml (in vitro)	remaining at 10 min, 50 μg/ml (in vitro)	remaining at 0.25 h, 50 μg/ml (in vitro)	remaining at 0.5 h, 50 μg/ml (in vitro)	remaining at 1 h, 50 μg/ml (in vitro)	remaining at 10 min, 50 μg/ml ([3]; isolated enzyme dpp iv, pH 8)	Compound	DDP IV % peptide remaining ([3]; incubation time 10 minutes, 37° C., 48 milli-units DPP IV, 0.1M TRIS pH 8.0, relative to T0)
9.48	8.99	100%	100%	100%	100%	100%	100%	CC[C@H](C)[C@H](NC(=O)[C@H](Cc1ccccc1)NC(=O)[C@H](CCC(=O)O)NC(=O)[C@H](CCCCN)NC(=O)[C@H](C)NC(=O)[C@H](C)NC(=O)[C@H](CCC(N)=O)NC(=O)CNC(=O)[C@H](CCC(=O)O)NC(=O)[C@H](CC(C)C)NC(=O)[C@H](Cc1ccc(O)cc1)NC(=O)[C@H](CO)NC(=O)[C@H](CO)NC(=O)[C@@H](NC(=O)[C@H](CC(=O)O)NC(=O)[C@H](CO)NC(=O)[C@@H](NC(=O)[C@H](Cc1ccccc1)NC(=O)[C@@H](NC(=O)CNC(=O)[C@H](CCC(=O)O)NC(=O)[C@@H](C)NC(=O)[C@@H](N)Cc1c[nH]cn1)[C@@H](C)O)[C@@H](C)O)C(C)C)C(=O)N[C@@H](C)C(=O)N[C@@H](Cc1c[nH]c2ccccc12)C(=O)N[C@@H](CC(C)C)C(=O)N[C@H](C(=O)N[C@@H](CCCCN)C(=O)NCC(=O)NCC(N)=O)C(C)C [Example 7]	–
–	–	–	–	–	–	–	–	Glucagon-Like Peptides-1 (7-37) and (7-36) NH2 [^tGLP1, reference compound]	8%
